Assay results reported in US11661399B2, “Methods and compositions for preventing degradation of dimethyl trisulfide” (priority 2018, dated 2023).

How the values were obtained:
[1] = DMTS degradation over 14 days at 54° C. (gas chromatograph, Day 0 vs Day 14); format: physicochemical; settings: water + MDEA, pH lowered to 2, two weeks at 54° C.
Procedure: (§1) EPA accelerated stability guidelines call for storage of compositions at 54° C. for two weeks. This is considered to be the equivalent to storing compositions for one year at room temperature. These conditions were applied to the following studies to ensure that DMTS can be formulated in compliance with EPA guidelines.
In this example, various concentrations of DMTS in water, ethanol (EtOH), and propylene glycol (PG), with and without MDEA, were prepared and tested for degradation. The pH was adjusted to 2, 7, or 12+/−0.5 with sodium hydroxide or hydrochloric acid. The DMTS concentration was measured by gas chromatograph on Day 0 and Day 14 and the percent degradation calculated from those values. The formulas were capped and stored at 54° C. for two weeks.

[2] = Accelerated stability storage: DMTS recovery over time in solution; format: physicochemical; settings: for DMTS degraded: 14 days at 54° C.
Procedure: as §1
120 ppm DMTS only is compared to 120 ppm DMTS with 420 ppm MDEA. Using the accelerated conditions described above, DMTS in water was still observed to be degrading over time.
Various conditions were modified to improve the overall stability of DMTS in solution. First, the pH was lowered by buffering the solution. It was predicted that a lower pH might prevent the catalyzation of DMTS breakdown. The solution was buffered to a pH of 6 and compared to a control. 32 ppm DMTS was stored in glass at 40° C. for 7 days, then stored at 54° C. for an additional 15 days.
DMDS was added to the DMTS in this example. It was hypothesized that if the breakdown pathway of DMTS to DMDS exists in equilibrium, additional DMDS would stabilize the breakdown pathway. DMDS was added to formulas containing DMTS only and DMTS with MDEA.
It was hypothesized that propylene glycol (PG) could have a similar effect. Samples were prepared with 8 ppm and 4 ppm DMTS in water as controls. Experimental samples included 8 ppm DMTS with 1% PG or 10% PG. A sample was also prepared in an HDPE container that was not fluorinated.
This example examined the effects of fluorination of HDPE containers on the stability of DMTS. Stability of DMTS was recorded for storage at 54° C. over the course of 14 days. Glass containers were used as a control. HDPE containers were tested having no fluorination (F0), Level 3 fluorination (F3), and Level 5 fluorination (F5). Samples of DMTS were prepared to a dilution of 8 ppm DMTS in water with 10% PG.
Given the improvements seen with 10% PG used as solvent, higher concentrations of PG were tested. 0.28% DMTS in 100% PG was tested for stability over two weeks at 54° C. Storage in glass containers was compared to HDPE containers with Level 3 fluorination.
Other solvents were tested without dilution with water. Samples of 0.03% DMTS were prepared in 100% solvent. The solvents tested were ethanol in a glass container, PG in a glass container, PG in a non-fluorinated HDPE container, and glycerol in a glass container.
In this example, 0.03 wt-% (300 ppm) DMTS was dissolved into solvent consisting of 100% ethanol (EtOH) or 100% propylene glycol (PG). This study is very similar to Example 7. Recovery of DMTS was recorded over the course of 14 days. The DMTS solutions were stored in the accelerated conditions of 54° C. Less than 10% DMTS was degraded over the course of 14 days for both EtOH and PG.
In this example, a lower concentration of DMTS was used to produce a use composition. 32 ppm DMTS was dissolved in either a 100% water solution or a combination of 10% PG and 90% water. The same accelerated conditions were used for 14 days. Over 70% of DMTS was recovered with water as the only solvent. However, using a 10% PG solution in water improved DMTS stability, providing greater than 80% recovery.
Even lower concentrations of DMTS were examined to determine if further dilution of the concentrate affects stability of DMTS. Solutions including 8 ppm DMTS were prepared. DMTS was dissolved in water, a solution of 1 wt-% PG in water, and a solution 10 wt-% PG in water. […] The reduced quantity of DMTS did have a slight negative effect on stability.
Finally, solutions including 1 ppm DMTS were examined to determine if use compositions including small amounts of DMTS can remain stable over the course of the two week testing period at 54° C. […] Hard water had the greatest negative effect on DMTS stability.

CSSSC [DMTS, dimethyl trisulfide]
DMTS degraded [1]: 20%
DMTS remaining in solution ([2]; 1 ppm DMTS in hard water, day 14, 54° C.): no DMTS remained
DMTS stability (in words) ([2]; 8 ppm DMTS in water with 10% PG, HDPE Level 5 fluorination (F5), 54° C., 14 days): best results which were similar to the glass containers
DMTS degradation (in words) ([2]; 8 ppm DMTS in water with 10% PG, non-fluorinated HDPE (F0), 54° C., 14 days): fastest rates of DMTS degradation
DMTS stability (in words) ([2]; 8 ppm DMTS with 1% PG or 10% PG vs water controls): Some improvement
DMTS recovered ([2]; 32 ppm DMTS in 100% water, 14 days accelerated conditions): Over 70%
DMTS degradation (in words) ([2]; 32 ppm DMTS in solution with ethanol, glass, 40° C. 7 days then 54° C. 15 days): least degradation
DMTS stability (in words) ([2]; 32 ppm DMTS, N2 blanket and soft water samples, glass, 40° C. 7 days then 54° C. 15 days): least stable conditions
DMTS breakdown (in words) ([2]; 32 ppm DMTS, pH 6 buffer, glass, 40° C. 7 days then 54° C. 15 days): faster breakdown than the control
DMTS degradation over time (in words) ([2]; 120 ppm DMTS only in water vs 120 ppm DMTS with 420 ppm MDEA, accelerated conditions): degradation was slowed significantly
DMTS degraded ([2]; 300 ppm DMTS in 100% EtOH): Less than 10%
DMTS degraded ([2]; 300 ppm DMTS in 100% PG): Less than 10%
DMTS breakdown (in words) ([2]; DMDS added to DMTS only and DMTS with MDEA formulas): did not slow down the breakdown of DMTS
DMTS degradation (in words) ([2]; sample in non-fluorinated HDPE container, 54° C.): significantly faster degradation
